Assays:
[1] = system: patients with moderate to severe COPD; experiment: Clinical study in COPD: dyspnea by transition dyspnea index (TDI) in subjects using LABA + ICS; format: in vivo, human
Protocol: A clinical study was conducted to determine the efficacy of ensifentrine in treating COPD compared with placebo. Ensifentrine was administered by nebulizer at a dose of 3 mg twice daily (BID) for 24 weeks. The study was a multicenter, randomized, double-blind, parallel group, placebo-controlled trial with around 800 patients and 5:3 randomization.
The study population included patients aged 40-80 years with moderate to severe COPD (FEV1 30%-70% p.n., FEV1/forced vital capacity (FVC) ratio<0.7, with mMRC≥2). The randomization stratified (a) the use of stable background maintenance LAMA or LABA therapy use (approx. 50% yes or no) and (b) cigarette smoking (current or former). Inhaled corticosteroid (ICS) maintenance therapy was permitted in up to 20% of patients under certain provisions.
Ensifentrine was studied for its ability to treat COPD in subjects using inhalable corticosteroids (ICS) while also using a LABA.

[2] = system: patients with moderate to severe COPD; experiment: Clinical study in COPD: moderate/severe COPD exacerbations (rate ratio, time to first exacerbation); format: in vivo, human
Source text: A COPD exacerbation may be a moderate COPD exacerbation or a severe COPD exacerbation. A moderate exacerbation is defined as worsening symptoms of COPD (as defined hereinabove) requiring a minimum of three days of treatment with oral/systemic corticosteroids and/or antibiotics. A severe exacerbation is defined as worsening symptoms of COPD (as defined hereinabove) requiring in-patient hospitalization. In some embodiments, the pharmaceutical compositions provided herein reduce the severity of COPD exacerbations in a patient, and may be used in preventing severe COPD exacerbations in a subject. In some embodiments, pharmaceutical compositions reduce the severity of COPD exacerbations. In some embodiments, […]
Ensifentrine's ability to reduce the frequency and or severity of COPD exacerbations was studied in 1,549 subjects. Ensifentrine's ability to reduce the frequency and or severity of COPD exacerbations was assessed in various subgroup populations. In one part of the study, subjects were assessed based on whether they were diagnosed with mild or moderate COPD or severe or very severe COPD. […]
These subjects were also assessed for the time to first moderate/severe COPD exacerbation, as measured by a hazard ratio from a Cox model. […]

COc1cc2c(cc1OC)-c1c/c(=N\c3c(C)cc(C)cc3C)n(CCNC(N)=O)c(=O)n1CC2 [Ensifentrine, N-(2-{(2E)-9,10-dimethoxy-4-oxo-2-[(2,4,6-trimethylphenyl)imino]-6,7-dihydro-2H-pyrimido[6,1-a]isoquinolin-3(4H)-yl}ethyl)urea]
Transition Dyspnea Index, LS Mean ([1]; COPD medication LABA + ICS): 1.394 (0.4748) | Transition Dyspnea Index, Estimate (Ensi-Pla) ([1]; COPD medication LABA + ICS, difference ensifentrine minus placebo): 0.768 | Dyspnea compared to placebo ([1]; subjects taking LABA and ICS): exhibited improvements in dyspnea | Reductions in exacerbations ([2]; subjects with baseline blood eosinophil concentrations of greater than 150 cells/μL): Reductions in exacerbations were observed | Reductions in exacerbations ([2]; subjects with baseline blood eosinophil concentrations of less than or equal to 150 cells/μL): Reductions in exacerbations were observed
